In patent US20050222108A1, “Solvent-based sterilisation of pharmaceuticals” (priority 2002, published 2005):
Where two headings read alike, the source gives them in different places.

What was measured:
[1] = Solubility by w/w % assay of saturated solutions in various solvents; assay type: physicochemical; conditions: saturated solution, 21-23° C.
Procedure: The solubility of fluticasone propionate was measured by w/w % assay of saturated solutions in a variety of solvents at 21-23° C.

[2] = Stability to distillation at atmospheric pressure (HPLC area % profile); assay type: physicochemical; conditions: Example 5
Procedure: In this example, a development of example 4, the distillation was performed at atmospheric pressure and the first distillation was halted when the pot temperature reached 99° C. […] A further 25 volumes of water were added and the distillation continued until 25 volumes of distillate had been removed.

[3] = assay type: physicochemical; conditions: for Area %: 100° C. under nitrogen, in water
Procedure: A sample from the above example was heated to 100° C. under nitrogen for 30 hours to examine the stability of the drug under extended distillation times required on scale-up. No new impurities were evident in the area % chromatogram and the assay of the fluticasone propionate appears unaffected by extended periods at 100° C. in water.

w/w % solubility of fluticasone propionate ([1]; Acetone): 5.7 w/w %
w/w % solubility of fluticasone propionate ([1]; Ethanol): 0.4 w/w %
w/w % solubility of fluticasone propionate ([1]; Ethyl acetate): 0.2 w/w %
w/w % solubility of fluticasone propionate ([1]; Isopropanol): 0.3 w/w %
w/w % solubility of fluticasone propionate ([1]; tBME): 1.2 w/w %
Stability to distillation at 100° C. (HPLC area % profile, starting solid to final aqueous slurry) [2]: stable
Time chemically stable to distillation at 100° C. [3]: at least 30 hours
Assay of fluticasone propionate after extended periods at 100° C. in water ([3]; 100° C. in water, up to 30 hours, no new impurities in area % chromatogram): unaffected
Area % ([3]; Time 0 hr): 99.2%
Area % ([3]; Time 6 hr): 99.4%
Area % ([3]; Time 24 hr): 99.5%
Area % ([3]; Time 30 hr): 99.4%
Structure (SMILES): CCC(=O)O[C@]1(C(=O)SCF)[C@H](C)C[C@H]2[C@@H]3C[C@H](F)C4=CC(=O)C=C[C@]4(C)[C@@]3(F)[C@@H](O)C[C@@]21C [fluticasone propionate]
